According to article PMC10552532, “Evaluation of anti-cancer effects of carnosine and melittin-loaded niosomes in MCF-7 and MDA-MB-231 breast cancer cells” (Frontiers in Pharmacology, 2023):

What was measured:
MCF-7 cells [1] = assay: MTT cytotoxicity assay; type: cell-based; conditions: Homo sapiens, MCF7, MCF-7, 48 h, read-out: IC50 (viability)
Protocol: (§1) The 3-(4,5-dimethylthiazol-2-yl)-2,5-diphenyl-2H-tetrazolium bromide (MTT) assay is a colorimetric method that uses the transformation of yellow MTT into purple formazan. The following procedures were carried out in a clean environment using MTT Assay Kit (Cell Proliferation) (catalog number: ab211091, Abcam, United Kingdom), with the use of a Laminar flow cabinet meeting biosafety standard II (Baker, SG403INT, Sanford, ME, United States), l0^4 cells/well were subjected to varying doses of Car-NIO (5, 10, 25, 50, and 100 μM) ([Tehrani et al., 2018]) and Mel-NIO (5, 10, 25, 50, and 100 μM) ([Yaacoub et al., 2021]) and olaparib (5, 10, 25, 50, and 100 μM) ([Ashmawy et al., 2017]). After 48 h, we added 2.5 μg/mL of MTT to each well and incubated the plates at 37°C for another 4 h. After the formation of formazan crystals, 10% sodium dodecyl sulfate (200 μL/well) was used to dissolve the crystals. We measured the absorbance at 595 nm, and a positive control that causes 100% mortality under the same conditions was utilized. Using the following formula, the change in viability was given as a percentage was calculated: Cytotoxicity %=Extract reading/Negative control reading x100
(§2) Viability % = 100- Cytotoxicity%, The impact of each treatment is measured by its IC50 (the concentration at which 50% of the viability is inhibited).

MDA-MB-231 cells [2] = assay: MTT cytotoxicity assay; type: cell-based; conditions: Homo sapiens, MDA-MB-231, 48 h, read-out: IC50 (viability)
Protocol: as §1, §2

MCF-7 cells [3] = assay: Quantitative RT-PCR of marker genes; type: cell-based; conditions: MCF-7, vs untreated cancer cells
Excerpt: (§3) The cells’ total RNA was extracted with the help of the RNA Mini Kit from Ambion by Life Technologies by Thermo Scientific (catalog number: 12183018A). To ensure the integrity of the RNA samples, we used a NanoDrop® ND-1000 Spectrophotometer from NanoDrop Technologies in Wilmington, Delaware, United States A High Capacity cDNA Reverse Transcription Kit (catalog number: 4374966) from Thermo Scientific was then used to amplify the cDNA. The Maxima SYBR Green qPCR Master Mix (2X) kit from Thermo Scientific, (catalog number: K0251), was used for real-time PCR amplification ([Shehata et al., 2018]). The housekeeping GADPH (for mRNA) or U6 (for miRNA) were used as a standard. The 2^−∆∆ct formula was used to calculate the levels of target gene expression ([Livak and Schmittgen, 2001]). Table 1 contains the sequences of the desired gene primers.

MDA-MB-231 cells [4] = assay: Quantitative RT-PCR of marker genes; type: cell-based; conditions: MDA-MB-231, vs untreated cancer cells
Excerpt: as §3

MCF-7 cells [5] = assay: Lipid peroxidation (MDA) detection; type: cell-based; conditions: MCF-7, 48 h at IC50 concentration, vs untreated cancer cells
Protocol: (§4) For this assay, the cells (2 × 10^6 cells/mL) were seeded onto 96-well culture plates to determine lipid peroxidation levels. Following a 48-h incubation with Car-NIO (48.83, 51.4 μM), Mel-NIO (21.23, 43.65 μM), and olaparib (23.31, 32.55 μM), cells were collected and washed twice with phosphate-buffered saline. The cells were harvested with a sonicator probe (VCX-130 W, Newtown, United States) on ice, and then disrupted by ultra-sonication for 5 s. Following the manufacturer’s guidelines for best results, the malondialdehyde (MDA) was detected in the cell extract using the MDA test kit (catalog number: ab287797, Abcam, United Kingdom). The microplate reader was used to determine the MDA concentration at a wavelength of 532 nm (Tecan, Mannedorf, Switzerland) ([Gérard-Monnier et al., 1998]).

MDA-MB-231 cells [6] = assay: Lipid peroxidation (MDA) detection; type: cell-based; conditions: MDA-MB-231, 48 h at IC50 concentration, vs untreated cancer cells
Protocol: as §4

MCF-7 cells [7] = assay: Cell cycle distribution by flow cytometry (propidium iodide); type: cell-based; conditions: MCF-7, 48 h at IC50 concentration
Protocol: (§5) Overnight, the cells were cultured in 100-mm plates at a density of 2 × 10^6 cells/mL per well using fresh culture media. Treatment with Car-NIO (48.83, 51.4 μM), Mel-NIO (21.23, 43.65 μM), and olaparib (23.31, 32.55 μM) for 48 h began the next day. After harvesting, the cells were fixed in 70% ethanol at […] for 12 h. After that, the cells were exposed to RNase (10 mg/mL) and propidium iodide (50 μg/mL) for 30 min. The cell cycle distribution was analyzed using flow cytometry, and the data were analyzed using FlowJo (TreeStar, Ashland, OR, United States) ([Mei et al., 2019]).

MDA-MB-231 cells [8] = assay: as above; type: cell-based; conditions: MDA-MB-231, 48 h at IC50 concentration
Protocol: as §5

[9] = tested on: human epidermal growth factor receptor 2-negative, metastatic breast cancer and a hereditary BRCA mutation; design: method as in Tutt et al., 2021; conditions: olaparib monotherapy rather than the standard treatment; ref Tutt et al., 2021; cited from earlier work
[10] = In vitro drug release from dialysis bag; type: physicochemical; conditions: first 6 h, pH 5.4, 37°C
Protocol: A dialysis bag (MWCO = 12 kDa) was used to compare 2 mL of free drugs, Car-NIO and Mel-NIO for drug release (in vitro). This bag was placed in a phosphate buffered saline (PBS) solution (50 mL, 1X, pH = 5.4) with slow stirring (50 rpm) at 37°C. At certain intervals, a portion of the PBS solution was removed and replaced with a new aliquot.

## O=C(c1cc(Cc2n[nH]c(=O)c3ccccc23)ccc1F)N1CCN(C(=O)C2CC2)CC1 [olaparib]
MCF-7 cells [1]
  IC50: 23.3 µM
MDA-MB-231 cells [2]
  IC50: 32.5 µM
MCF-7 cells [3]; U6 as standard
  expression level of miRNA-183: significant downregulation
MCF-7 cells [3]; relative to GADPH
  expression level of Bcl2: significant downregulation
  expression level of FOXO3: significantly upregulated
  expression level of PARP 1: significant downregulation
  expression level of PDCD4: significantly upregulated
  mRNA expression of Bax: significant upregulation
  mRNA expression of P53: significant upregulation
  mRNA expression of caspase-3: significant upregulation
  mRNA expression of caspase-9: significant upregulation
MDA-MB-231 cells [4]; U6 as standard
  expression level of miRNA-183: significant downregulation
MDA-MB-231 cells [4]; relative to GADPH
  expression level of Bcl2: significant downregulation
  expression level of FOXO3: significantly upregulated
  expression level of PARP 1: significant downregulation
  expression level of PDCD4: significantly upregulated
  mRNA expression of Bax: significant upregulation
  mRNA expression of P53: significant upregulation
  mRNA expression of caspase-3: significant upregulation
  mRNA expression of caspase-9: significant upregulation
MCF-7 cells [5]
  MDA level: significant downregulation
MDA-MB-231 cells [6]
  MDA level: significant downregulation
MCF-7 cells [7]
  cells in G0/1 phase: 63.2%
  cells in S phase: 8.6%
MDA-MB-231 cells [8]
  cells in G0/1 phase: 83.0%
  cells in S phase: 3.2%
[9]
  extension of median progression-free survival: 2.8 months

## NCCC(=O)N[C@@H](Cc1cnc[nH]1)C(=O)O [carnosine, β-alanyl-L-histidine]
[10]
  drug release: 43%

## melittin
[10]
  drug release: 72.3%
